# Assay: Stability of cannabinoid and Vitamin E components of Beverage 1 (AB White) stored at 8° C. and 21-25° C., LCMSMS over 570 days
# Type: physicochemical
# Conditions: for Stability in AB White, 8° C. (content by LCMSMS): beverage stored at 8° C.; for Stability in AB White, 21-25° C. (content by LCMSMS): beverage stored at 21-25° C.
# Experimental: The LCMSMS was calibrated for 0-1000 ng/ml cannabinoids with the same resin material used in the preparation of the concentrates. At each time period, 100 ml of beverage was diluted with 10 ml of methanol and injected into the LCMSMS for analysis.
smiles,measurement,setting,value
"CCCCCc1cc(O)c2c(c1)OC1(C)CCC3C1C2C3(C)C (centres unmarked) [CBL, cannabicyclol]","Stability in AB White, 8° C. (content by LCMSMS)",day 0,0.550 µg/mL
same,"Stability in AB White, 8° C. (content by LCMSMS)",day 1,0.541 µg/mL
same,"Stability in AB White, 8° C. (content by LCMSMS)",day 2,0.542 µg/mL
same,"Stability in AB White, 8° C. (content by LCMSMS)",day 3,0.553 µg/mL
same,"Stability in AB White, 8° C. (content by LCMSMS)",day 5,0.552 µg/mL
same,"Stability in AB White, 8° C. (content by LCMSMS)",day 8,0.537 µg/mL
same,"Stability in AB White, 8° C. (content by LCMSMS)",day 9,0.535 µg/mL
same,"Stability in AB White, 8° C. (content by LCMSMS)",day 10,0.544 µg/mL
same,"Stability in AB White, 8° C. (content by LCMSMS)",day 11,0.544 µg/mL
same,"Stability in AB White, 8° C. (content by LCMSMS)",day 12,0.553 µg/mL
same,"Stability in AB White, 8° C. (content by LCMSMS)",day 15,0.534 µg/mL
same,"Stability in AB White, 8° C. (content by LCMSMS)",day 16,0.546 µg/mL
same,"Stability in AB White, 8° C. (content by LCMSMS)",day 17,0.540 µg/mL
same,"Stability in AB White, 8° C. (content by LCMSMS)",day 18,0.536 µg/mL
same,"Stability in AB White, 8° C. (content by LCMSMS)",day 19,0.537 µg/mL
same,"Stability in AB White, 8° C. (content by LCMSMS)",day 22,0.555 µg/mL
same,"Stability in AB White, 8° C. (content by LCMSMS)",day 23,0.545 µg/mL
same,"Stability in AB White, 8° C. (content by LCMSMS)",day 24,0.548 µg/mL
same,"Stability in AB White, 8° C. (content by LCMSMS)",day 25,0.540 µg/mL
same,"Stability in AB White, 8° C. (content by LCMSMS)",day 26,0.534 µg/mL
same,"Stability in AB White, 8° C. (content by LCMSMS)",day 29,0.547 µg/mL
same,"Stability in AB White, 8° C. (content by LCMSMS)",day 30,0.544 µg/mL
same,"Stability in AB White, 8° C. (content by LCMSMS)",day 60,0.543 µg/mL
same,"Stability in AB White, 8° C. (content by LCMSMS)",day 90,0.527 µg/mL
same,"Stability in AB White, 8° C. (content by LCMSMS)",day 120,0.534 µg/mL
same,"Stability in AB White, 8° C. (content by LCMSMS)",day 150,0.540 µg/mL
same,"Stability in AB White, 8° C. (content by LCMSMS)",day 180,0.542 µg/mL
same,"Stability in AB White, 8° C. (content by LCMSMS)",day 210,0.534 µg/mL
same,"Stability in AB White, 8° C. (content by LCMSMS)",day 240,0.535 µg/mL
same,"Stability in AB White, 8° C. (content by LCMSMS)",day 270,0.539 µg/mL
same,"Stability in AB White, 8° C. (content by LCMSMS)",day 300,0.526 µg/mL
same,"Stability in AB White, 8° C. (content by LCMSMS)",day 330,0.543 µg/mL
same,"Stability in AB White, 8° C. (content by LCMSMS)",day 360,0.533 µg/mL
same,"Stability in AB White, 8° C. (content by LCMSMS)",day 390,0.535 µg/mL
same,"Stability in AB White, 8° C. (content by LCMSMS)",day 420,0.526 µg/mL
same,"Stability in AB White, 8° C. (content by LCMSMS)",day 450,0.532 µg/mL
same,"Stability in AB White, 8° C. (content by LCMSMS)",day 480,0.521 µg/mL
same,"Stability in AB White, 8° C. (content by LCMSMS)",day 510,0.514 µg/mL
same,"Stability in AB White, 8° C. (content by LCMSMS)",day 540,0.514 µg/mL
same,"Stability in AB White, 8° C. (content by LCMSMS)",day 570,0.503 µg/mL
same,"Stability in AB White, 21-25° C. (content by LCMSMS)",day 0,0.550 µg/mL
same,"Stability in AB White, 21-25° C. (content by LCMSMS)",day 1,0.539 µg/mL
same,"Stability in AB White, 21-25° C. (content by LCMSMS)",day 2,0.540 µg/mL
same,"Stability in AB White, 21-25° C. (content by LCMSMS)",day 3,0.543 µg/mL
same,"Stability in AB White, 21-25° C. (content by LCMSMS)",day 5,0.530 µg/mL
same,"Stability in AB White, 21-25° C. (content by LCMSMS)",day 8,0.542 µg/mL
same,"Stability in AB White, 21-25° C. (content by LCMSMS)",day 9,0.535 µg/mL
same,"Stability in AB White, 21-25° C. (content by LCMSMS)",day 10,0.546 µg/mL
same,"Stability in AB White, 21-25° C. (content by LCMSMS)",day 11,0.552 µg/mL
same,"Stability in AB White, 21-25° C. (content by LCMSMS)",day 12,0.529 µg/mL
same,"Stability in AB White, 21-25° C. (content by LCMSMS)",day 15,0.548 µg/mL
same,"Stability in AB White, 21-25° C. (content by LCMSMS)",day 16,0.537 µg/mL
same,"Stability in AB White, 21-25° C. (content by LCMSMS)",day 17,0.554 µg/mL
same,"Stability in AB White, 21-25° C. (content by LCMSMS)",day 18,0.554 µg/mL
same,"Stability in AB White, 21-25° C. (content by LCMSMS)",day 19,0.552 µg/mL
same,"Stability in AB White, 21-25° C. (content by LCMSMS)",day 22,0.547 µg/mL
same,"Stability in AB White, 21-25° C. (content by LCMSMS)",day 23,0.530 µg/mL
same,"Stability in AB White, 21-25° C. (content by LCMSMS)",day 24,0.546 µg/mL
same,"Stability in AB White, 21-25° C. (content by LCMSMS)",day 25,0.532 µg/mL
same,"Stability in AB White, 21-25° C. (content by LCMSMS)",day 26,0.549 µg/mL
same,"Stability in AB White, 21-25° C. (content by LCMSMS)",day 29,0.552 µg/mL
same,"Stability in AB White, 21-25° C. (content by LCMSMS)",day 30,0.543 µg/mL
same,"Stability in AB White, 21-25° C. (content by LCMSMS)",day 60,0.544 µg/mL
same,"Stability in AB White, 21-25° C. (content by LCMSMS)",day 90,0.541 µg/mL
same,"Stability in AB White, 21-25° C. (content by LCMSMS)",day 120,0.516 µg/mL
same,"Stability in AB White, 21-25° C. (content by LCMSMS)",day 150,0.517 µg/mL
same,"Stability in AB White, 21-25° C. (content by LCMSMS)",day 180,0.527 µg/mL
same,"Stability in AB White, 21-25° C. (content by LCMSMS)",day 210,0.514 µg/mL
same,"Stability in AB White, 21-25° C. (content by LCMSMS)",day 240,0.515 µg/mL
same,"Stability in AB White, 21-25° C. (content by LCMSMS)",day 270,0.535 µg/mL
same,"Stability in AB White, 21-25° C. (content by LCMSMS)",day 300,0.532 µg/mL
same,"Stability in AB White, 21-25° C. (content by LCMSMS)",day 330,0.526 µg/mL
same,"Stability in AB White, 21-25° C. (content by LCMSMS)",day 360,0.526 µg/mL
same,"Stability in AB White, 21-25° C. (content by LCMSMS)",day 390,0.518 µg/mL
same,"Stability in AB White, 21-25° C. (content by LCMSMS)",day 420,0.523 µg/mL
same,"Stability in AB White, 21-25° C. (content by LCMSMS)",day 450,0.521 µg/mL
same,"Stability in AB White, 21-25° C. (content by LCMSMS)",day 480,0.510 µg/mL
same,"Stability in AB White, 21-25° C. (content by LCMSMS)",day 510,0.503 µg/mL
same,"Stability in AB White, 21-25° C. (content by LCMSMS)",day 540,0.510 µg/mL
same,"Stability in AB White, 21-25° C. (content by LCMSMS)",day 570,0.505 µg/mL
